Measured values: patent publication US6172185A, “Antimicrobial cationic peptide derivatives of bactenecin” (priority 1998, dated 2001)
Where a SMILES comes first, the peptide text is derived from it.

Experiments:
[1] = system: E. coli DC2; format: cell-based, Escherichia coli; details: E. coli DC2, 0.1M KCl
Procedure: The minimal inhibitory concentration (MIC) of peptides was determined by a modified two-fold microtitre broth dilution method modified from that of Steinberg et al (Steinberg, Antimicrob. Agents Chemother. 41:1738, 1997). Using the classical method (Amsterdam, Antibiotics in Laboratory Medicine (Lorian, V., ed) pp. 72-78, 1991), higher concentrations of peptides tend to precipitate in the LB broth, thus the concentrations of peptides in the sequential wells are not accurate. Also the peptides stick to the most readily available (tissue-culture treated polystyrene) 96-well microtitre plates. Therefore the 2× series of dilutions was performed in Eppendoff tubes (polypropylene) before mixing with LB broth. Serial of two fold dilutions of peptides ranging from 640 μg/ml to 1.25 μg/ml were made in 0.2% BSA, 0.01% acetic acid buffer in the Eppendoff tubes. Ten μl of each concentration was added to each corresponding well of a 96-well microtiter plate (polypropylene cluster; Costar Corporation, Cambridge, Mass.). Bacteria were grown overnight and diluted 10-5 into fresh LB broth or Todd Hewitt broth for Streptococcus. LB medium contained 10 g/1l tryptone and 5 g/yeast extract, with no salt. Todd Hewitt contained 500 g/l beef heart infusion, 20 g/l bacto neopeptone, 2 g/l bacto dextrose, 2 g/l sodium chloride, 0.4 g/l disodium phosphate, 2.5 g/l sodium carbonate. One hundred […] containing about 10^4-10^5 CFU/ml of tested bacteria was added to each well. […]
It has been proposed that the antibacterial target of cationic peptides be at the cytoplasmic membrane. […] Once inside the cells, diS-C3-(5) becomes concentrated and self-quenches its own fluorescence. If peptides form channels or otherwise disrupt the membrane, the membrane potential will be dissipated, and the DiS-C3-(5) will be released into the medium causing the fluorescence to increase, as can be detected by fluorescent spectrometry. […] Therefore the MICs of bactenecin, reduced bactenecin and bac2S in the presence of 0.1M KCl were determined and shown to be 8-16 μg/ml (i.e. 4 to 8 fold higher than in low salt). […]

[2] = system: Human Red Blood Cells
[3] = system: rat embryonic neurons, fetal rat astrocytes and human glioblastoma cells; details: cited from earlier work
[4] = system: E. coli UB1005; assay: Outer membrane permeabilization, NPN uptake assay; format: cell-based, Escherichia coli; details: FIG. 3
Procedure: Mid-log phase E. coli cells were collected and incubated with NPN in the presence of various concentrations of bactenecin (oxidized), bac2S, bactenecin (reduced). NPN was taken up into cells when the outer membrane was disrupted by the peptides. The uptake of NPN was measured by the increase of fluorescence. Polymyxin B: -.quadrature.-; Bactenecin: -+-; Bac2S: -o-; Bactenecin (Reduced): -.gradient.-
The ability of peptides to permeabilize the outer membrane was determined by the NPN assay of Loh et al. (Loh et al., Antimicrob. Agents Chemother. 19:777, 1984). Cytoplasmic membrane permeabilization was determined by using the membrane potential sensitive cyanine dye DiS-C3-(5) (Sims et al., Biochemistry 13:3315, 1974). […] The cell suspension was incubated with […] DiS-C3-(5) until DiS-C3-(5) uptake was maximal (as indicated by a stable reduction in fluorescence due to fluorescence quenching as the dye became concentrated in the cell by the membrane potential), and 100 mM KCl was added to equilibrate the cytoplasmic and external K+ concentration. […] The fluorescence reading was monitored by using a Perkin-Elmer model 650-10 S fluorescence spectrophotometer (Perkin-Elmer Corp. Norwalk, Conn.), with an excitation wavelength of 622 nm and an emission wavelength of 670 nm. […]

| Compound | MIC in the presence of 0.1M KCl [1] [µg/mL] | Minimal Agglutinating Concentration, Oxidized Form [2] [µg/mL] | cytotoxicity [3] | concentration permeabilizing the outer membrane to 50% of maximal increase in fluorescence (NPN) [4] [mg/mL] |
| --- | --- | --- | --- | --- |
| CC[C@H](C)[C@@H]1NC(=O)[C@H](CCCNC(=N)N)NC(=O)[C@@H](NC(=O)[C@H](CC(C)C)NC(=O)[C@@H](N)CCCNC(=N)N)CSSC[C@@H](C(=O)N[C@@H](CCCNC(=N)N)C(=O)O)NC(=O)[C@H](C(C)C)NC(=O)[C@H](CCCNC(=N)N)NC(=O)[C@H]([C@@H](C)CC)NC(=O)[C@H](C(C)C)NC(=O)[C@H](C(C)C)NC1=O [Bactenecin, RLCRIVVIRVCR] (HELM PEPTIDE1{R.L.C.R.I.V.V.I.R.V.C.R}$PEPTIDE1,PEPTIDE1,3:R3-11:R3$$$V2.0) | 8 to 16 | 64 | strongly cytotoxic | – |
| Polymyxin B | – | – | – | 0.4 |
